We go through four compounds from patent US4745185A, “D-arabinose-1,5-diphosphate salts and methods for the treatment of diabetes” (McNeilab, Inc., priority 1985, dated 1988).

pEC50, pKi: −log10 of the molar value.

In assay [1] the test system is fructose-1,6-biphosphatase. Conditions: cited from earlier work.
Assay [2] addresses T1, fructose-1,6-biphosphatase (Rattus norvegicus, UniProt P19112).
T1 construct: from tissue; host or cells: rat liver
T1 sequence (P19112 2-363 limits assumed): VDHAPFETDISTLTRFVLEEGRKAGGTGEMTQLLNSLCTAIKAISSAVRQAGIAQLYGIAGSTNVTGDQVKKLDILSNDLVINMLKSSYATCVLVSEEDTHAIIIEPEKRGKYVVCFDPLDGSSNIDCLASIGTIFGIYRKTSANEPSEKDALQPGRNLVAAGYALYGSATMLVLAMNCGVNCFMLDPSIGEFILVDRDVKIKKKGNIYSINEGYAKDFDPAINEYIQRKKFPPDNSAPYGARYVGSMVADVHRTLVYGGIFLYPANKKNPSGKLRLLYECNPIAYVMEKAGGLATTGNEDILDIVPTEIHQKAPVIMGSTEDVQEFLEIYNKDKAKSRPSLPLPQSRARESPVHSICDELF
Briefly: Rat liver fructose-1,6-biphosphatase inhibition. It counts as biochemical. Conditions: competitive inhibitors; rat liver enzyme, in vitro. The source says: (§1) The utility of compounds of the invention of formula (I) as hypoglycemic agents may be determined by measurement of Ki values as competitive inhibitors of rat liver fructose-1,6-biphosphatase and by measurement of half-maximal concentrations as allosteric activators of rat liver 6-phosphofructo-1-kinase, both of these tests being in vitro. An in vivo test for the activity of compounds of the invention is the Epinephrine-Induced Hyperglycemic Model (EIHM). In the EIHM, male Sprague-Dawley rats from Charles River Laboratories, average weight 200-280 grams, maintained on Lab-Blox® rat chow (Wayne) and provided water ad libitum were used throughout all studies; rats were fasted 18-24 hours prior to treatment with epinephrine (0.2 mg/kg i.p.) which was given intraperitoneally. Drug or vehicle were given 30 minutes prior to epinephrine. Blood samples were taken from the tail vein for measurement of glucose changes prior to and at 45 and 90 minutes after administration of epinephrine bitartrate (Sigma Co., St. Louis, MO). Blood glucose was determined using Autoflo Glucose (Bio-Dyanamics/bmc, Indianapolis, IN).
1. Rat liver fructose-1,6-biphosphatase inhibition*:
*Methodology as described by S. J. Benkovic, et al. in Biochemistry, Vol. 10, No. 26, pp. 4881-4887 (1971).

The test system of assay [3] is blood glucose. Briefly: Epinephrine-Induced Hyperglycemic Model (EIHM), in vivo. Details: species or system male Sprague-Dawley rats. Conditions: for maximum % lowering (blood glucose): 100 mg/kg i.p., given 30 minutes prior to epinephrine (0.2 mg/kg i.p.), fasted rats, glucose at 45 and 90 minutes.
Source text: as §1
**reported as maximum % lowering; methodology as described by G. F. Tutwiler in Biochemical Medicine, Vol. 22, pp. 204 (1979).

Assay [4] has as its system 6-phosphofructo-1-kinase. The note with it: cited from earlier work.
Assay [5] deals with T2, 6-phosphofructo-1-kinase (Rattus norvegicus, UniProt P30835).
T2 construct: from tissue; host or cells: rat liver
T2 sequence (P30835 2-780 limits assumed): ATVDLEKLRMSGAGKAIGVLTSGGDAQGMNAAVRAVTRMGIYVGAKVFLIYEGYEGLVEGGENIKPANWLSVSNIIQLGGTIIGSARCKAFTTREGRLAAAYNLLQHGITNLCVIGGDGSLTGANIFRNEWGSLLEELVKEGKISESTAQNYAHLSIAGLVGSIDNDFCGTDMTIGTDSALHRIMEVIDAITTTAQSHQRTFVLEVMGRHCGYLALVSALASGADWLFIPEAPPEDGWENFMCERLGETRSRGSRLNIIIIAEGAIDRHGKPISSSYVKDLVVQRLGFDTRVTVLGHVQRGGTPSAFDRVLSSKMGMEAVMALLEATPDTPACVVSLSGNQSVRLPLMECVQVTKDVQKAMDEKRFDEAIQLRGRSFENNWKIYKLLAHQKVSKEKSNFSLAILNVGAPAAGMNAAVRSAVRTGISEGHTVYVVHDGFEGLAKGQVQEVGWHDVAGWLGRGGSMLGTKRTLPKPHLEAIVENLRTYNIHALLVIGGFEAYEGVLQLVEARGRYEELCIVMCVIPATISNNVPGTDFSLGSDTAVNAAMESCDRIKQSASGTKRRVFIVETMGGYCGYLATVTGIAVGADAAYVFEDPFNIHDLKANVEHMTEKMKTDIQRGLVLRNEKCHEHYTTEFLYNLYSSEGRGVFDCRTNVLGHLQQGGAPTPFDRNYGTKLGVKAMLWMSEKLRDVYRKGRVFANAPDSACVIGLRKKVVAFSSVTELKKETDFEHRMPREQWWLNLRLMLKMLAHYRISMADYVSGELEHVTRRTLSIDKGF
Briefly: Allosteric activation of rat liver 6-phosphofructo-1-kinase. It counts as biochemical. The note with it: rat liver enzyme, in vitro; read-out: half-maximal concentration, allosteric activation.
Source text: as §1
2. Allosteric activation of rat liver 6-phosphofructo-1-kinase
reported as half-maximal concentrations; methodology as described by S. J. Pilkis, et al. in The Journal of Biol. Chem., Vol. 256, pp. 3171 (1981).

By pKi is commonly meant the negative decadic logarithm of the Ki, by convention in mol/L. For the compound `O=P(O)(O)OC[C@H]1O[C@@](CO)(OP(=O)(O)O)[C@@H](O)[C@@H]1O` [Compound (A), β-D-fructose-2,6-diphosphate, reference compound], the “inhibition of fructose-1,6-biphosphatase (in words)” value in assay [1] is given as “deactivates gluconeogenesis by inhibiting fructose-1,6-biphosphatase”. This compound also had a negative-log Ki (pKi) in assay [2] of 6.70 to 7.00. For the same compound, in assay [3], the “maximum % lowering (blood glucose)” value turned out to be 0%. Further, the “stimulation of 6-phosphofructo-1-kinase (in words)” value in assay [4] is reported as “activates glycolysis by stimulating 6-phosphofructo-1-kinase”. For the same compound, in assay [5], the pEC50 is 7.30.

`O=P(O)(O)OC[C@H]1O[C@@H](OP(=O)(O)O)[C@@H](O)[C@@H]1O` [Example 1d, β-D-Arabinose-1,5-diphosphate] gave a pKi in assay [2] of 5.47. The “maximum % lowering (blood glucose)” value in assay [3] is 85%. Moreover, in assay [5], the pEC50 was 6.00.

In turn, `O=P(O)(O)OC[C@H]1O[C@H](OP(=O)(O)O)[C@@H](O)[C@@H]1O` [Example 2b, α-D-Arabinose-1,5-diphosphate] showed a pKi in assay [2] of 4.40 to 4.52. The pEC50 in assay [5] is 6.30.

For the compound `NC1CCCCC1` [cyclohexylamine], the “part of the drug effect due to the cyclohexylamine base” value in assay [3] (cyclohexylamine base used to crystallize Example 1d, Example 1d at 100 mg/kg i.p.) is reported as “approximately one-half of the drug effect”.
